Data published in patent US9650423B2, “Long peptides of 22-45 amino acid residues that induce and/or enhance antigen specific immune responses” (priority 2000, dated 2017).
pIC50: −log10 of the molar value. Where two headings read alike, the source gives them in different places. Residues, ends and D or L forms follow the SMILES beside them. No end group written: not given here.

Legend:
[1] = target: T1, HLA-DR1 (DRB*0101) (Homo sapiens, UniProt P01903+P01911, A100R/D57E/F55L/F60I/F76Y/I96L/L162R/M171V/P40L/Q125E/R42F/V115G/Y59C); assay: biochemical; assay type: binding
T1 construct: endogenous in cells; host or cells: LG2.1 B-lymphoblastic cell line, homozygous for HLA-DR

[2] = target: HLA-DR2 (DRB1*0201); assay: HLA-DR-peptide binding assay; design: species or system human
[3] = target: HLA-DR3 (DRB*0301); assay: HLA-DR-peptide binding assay; design: species or system human
[4] = target: HLA-DR4 (DRB*0401); assay: HLA-DR-peptide binding assay; design: species or system human
[5] = tested on: healthy donor PBMC; assay type: cell-based, human; conditions: for mean percentage of wells exceeding medium control + 3 * SD: 10 μg/ml, day 6, two assays
[6] = tested on: HPV16 E7-specific T-helper clones; assay: HPV16 E7-specific Th-clones: proliferation and IFNγ production; assay type: cell-based, human; conditions: for recognition by HLA-DQ2 restricted Th-clone, IFNγ secretion: Th-clone from HLA-DR3, DQ2 positive PBMC stimulated with peptide E722-56; for response of HLA-DR15 restricted Th-clone to pulsed APC: Th-clone from HLA-DR15, 4 and DQ6,7 positive PBMC raised against peptide E741-62
Method: Peptide-specific T-cell bulk cultures were generated as described previously (van der Burg et al., 1999) using either the E7 22-mer or E7 35-mer peptides. Specific proliferation was measured by incubation of 50,000 responders with an equal amount of irradiated (30Gy) APC (autologous PBMC unless indicated otherwise) and peptide or protein as indicated. E7-peptide and -protein-specific bulk T-cells were cloned by limiting dilution as described previously (van der Burg et al., 1999).
To determine specific excretion of cytokines, T-cell clones were stimulated by incubation of 50.000 T-cells with an equal amount of APC (30Gy) together with 10 μg/ml peptide, control peptide, E7 protein or control protein as indicated. After 24 hours of incubation, supernatant was harvested and replicate wells were pooled. Cytokine production was measured by Enzyme-Linked Immunosorbent Assay (ELISA) as described previously (van der Burg et al., 1999).

[7] = tested on: E7 49-57-specific CD8+ T cells; assay: Vaccination, H-2Db E7 49-57 tetramer staining of spleen cultures; assay type: in vivo, C57BL/6 mice; conditions: B6 mice
Method: Immunization strategies. C57BL/6 mice were injected subcutaneously with either 50 μg E7^49-57 peptide or 150 μg E7^43-77 35-mer dissolved in PBS in order to achieve similar molar levels of the E7^49-57 CTL epitope in both cases. Combinations with various adjuvantia were tested. In the case of IFA and Montanide, the dissolved peptides were emulsified in 50% of these respective substances. ODN-CpG (50 μg/mouse), MPL (10 μg/mouse) and GM-CSF (4 μg/mouse) were all dissolved in PBS and mixed with the peptides before subcutaneous vaccination. The total injected volume was 200 μl/mouse.
T cell cultures. T cells were obtained from immunized mice by culturing spleen cells (5×10^6 cells/well of a 24-wells plate) in complete medium in the presence of 0.5×10^6 E7^49-57-expressing cells (tumor cell line 13.2) or, when indicated, in the presence of D1 cells.
Tetramer staining. Spleen cultures, stimulated with tumor cell line 13.2 for seven days, were transferred at an amount of 40×10^4 per well to 96-well V-bottom microtiter plates and washed twice with PBS/BSA 0.5%. Subsequently, PE-labelled E749-57-containing tetramer was added. After 30 minutes of incubation at room temperature, cells were washed twice with PBS/BSA 0.5% and incubated with FITC-labelled anti CD8b Ab for 30 minutes. Subsequently cells were washed twice in PBS/BSA 0.5%, suspended in PBS/BSA 0.5% containing Propidium Iodide (PI) (0.5) μg/ml) and transferred to tubes. Cell samples were analysed in a FACSCalibur flow cytometer (Becton Dickinson, San Jose, Calif., USA) using CellQuest software. A total of 20×10^4 events was analysed for fluorescence intensity. Debris was gated out using the PI staining and subsequently the CD8^+ fraction was gated. […] As a positive control the HPV16 E7 specific CTL clone 9.5 was used.

[8] = HPV16-E2 peptides, >70 represents undetectable binding, read-out: Binding affinity DR1, IC50
[9] = HPV16-E2 peptides, >70 represents undetectable binding, read-out: Binding affinity DR2, IC50
[10] = HPV16-E2 peptides, >70 represents undetectable binding, read-out: Binding affinity DR3, IC50
[11] = HPV16-E2 peptides, >70 represents undetectable binding, read-out: Binding affinity DR4, IC50

## AIVTLTYDSEWQRDQFLSQVKIPKTITVSTGFMSI [E2 331-365]
[1]; [8]
  pIC50: 5.10
[2]; [9]
  pIC50: 4.70
[3]; [10]
  pIC50: 5.00
[4]; [11]
  pIC50: 4.82
[5]; donor D3
  mean percentage of wells exceeding medium control + 3 * SD: 100%
[5]; donor D7
  mean percentage of wells exceeding medium control + 3 * SD: 75%

## SSEEEDEIDGPAGQAEPDRAHY [E7 31-52]
[1]; read-out: Binding DR1, IC50
  pIC50: < 4.15
[2]; HPV16-E7 22-mer peptides, >70 indicates undetectable binding, read-out: Binding DR2, IC50
  pIC50: < 4.15
[3]; HPV16-E7 22-mer peptides, >70 indicates undetectable binding, read-out: Binding DR3, IC50
  pIC50: < 4.15
[4]; HPV16-E7 22-mer peptides, >70 indicates undetectable binding, read-out: Binding DR4, IC50
  pIC50: < 4.15

## E2 91-120: 30-mer, amino acids 91-120 of HPV16 E2 protein (KWTLQDVSLEVYLTAPTGCIKKHGYTVEVQ; UniProt P03120 91-120, looked up, fragment)
[5]; donor D5
  mean percentage of wells exceeding medium control + 3 * SD: 94%
[5]; donor D8
  mean percentage of wells exceeding medium control + 3 * SD: 75%

## E7 35-55: peptide, amino acids 35-55 of HPV16 E7 (EDEIDGPAGQAEPDRAHYNIV; UniProt P03129 35-55, looked up, fragment)
[6]
  recognition by HLA-DQ2 restricted Th-clone, IFNγ secretion: recognized

## CC[C@H](C)[C@H](NC(=O)[C@H](CCCNC(=N)N)NC(=O)CNC(=O)[C@H](CCCCN)NC(=O)[C@H](Cc1c[nH]cn1)NC(=O)[C@H](CO)NC(=O)[C@H](CO)NC(=O)[C@H](CC(N)=O)NC(=O)[C@@H](N)Cc1ccccc1)C(=O)N[C@@H](CC(N)=O)C(=O)N[C@@H](CS)C(=O)N[C@@H](CC(N)=O)C(=O)N[C@@H](CO)C(=O)N[C@@H](CC(N)=O)C(=O)N[C@H](C(=O)N[C@H](C(=O)N1CCC[C@H]1C(=O)N[C@H](C(=O)N[C@H](C(=O)N[C@@H](Cc1c[nH]cn1)C(=O)N[C@@H](CC(C)C)C(=O)N[C@@H](CCCCN)C(=O)NCC(=O)N[C@@H](CC(=O)O)C(=O)N[C@@H](C)C(=O)N[C@@H](CC(N)=O)C(=O)N[C@H](C(=O)N[C@@H](CC(C)C)C(=O)N[C@@H](CCCCN)C(=O)N[C@@H](CS)C(=O)O)[C@@H](C)O)C(C)C)[C@@H](C)CC)[C@@H](C)O)[C@@H](C)O [E2 271-300] (H-FNSSHKGRINCNSNTTPIVHLKGDANTLKC-OH; N-terminus and C-terminus assumed)
[2]; [9]
  pIC50: 4.19
[3]; [10]
  pIC50: 4.43
[4]; [11]
  pIC50: < 4.15
[5]; donor D8
  mean percentage of wells exceeding medium control + 3 * SD: 88%

## E2 166-195: 30-mer, amino acids 166-195 of HPV16 E2 protein (TYFVQFKDDAEKYSKNKVWEVHAGGQVILC; UniProt P03120 166-195, looked up, fragment)
[5]; donor D3
  mean percentage of wells exceeding medium control + 3 * SD: 94%
[5]; donor D5
  mean percentage of wells exceeding medium control + 3 * SD: 81%

## E2 31-60: 30-mer, amino acids 31-60 of HPV16 E2 protein (DYWKHMRLECAIYYKAREMGFKHINHQVVP; UniProt P03120 31-60, looked up, fragment)
[5]; donor D3
  mean percentage of wells exceeding medium control + 3 * SD: 81%
[5]; donor D8
  mean percentage of wells exceeding medium control + 3 * SD: 88%

## RAHYNIVTF (minimal 9 amino acid long CTL epitope) [E7 49-57, ID; NO, reference compound]
[7]; prime-boost, IFA
  E7 49-57-specific CD8+ T cell response: comparable to that after one vaccination
[7]; vaccinated once, IFA, responders
  CD8+ T cells stained with tetramers: ~5%
[7]; vaccinated once, IFA, spleens day 10
  mice responding to the vaccine (tetramer staining): 3 out of 9
[7]; vaccinated once, MPL
  number of responders: 4/9
[7]; vaccinated once, Montanide adjuvant
  E7 49-57-specific CTL response: no responses were observed
[7]; vaccinated once, ODN-CpG
  number of responders: 4/12
[7]; vaccinated once, combined with anti-CD40 antibody or GM-CSF
  E7 49-57-specific CTL response: no or minimal CTL responses

## tetanus toxoid [TT, reference compound]
[5]; donor D1
  mean percentage of wells exceeding medium control + 3 * SD: 100%
[5]; donor D2
  mean percentage of wells exceeding medium control + 3 * SD: 100%
[5]; donor D3
  mean stimulation index of all test wells of both assays: 25
  mean percentage of wells exceeding medium control + 3 * SD: 100%
[5]; donor D4
  mean percentage of wells exceeding medium control + 3 * SD: 100%
[5]; donor D5
  mean percentage of wells exceeding medium control + 3 * SD: 100%
[5]; donor D6
  mean stimulation index of all test wells of both assays: 139
  mean percentage of wells exceeding medium control + 3 * SD: 100%
[5]; donor D7
  mean percentage of wells exceeding medium control + 3 * SD: 100%
[5]; donor D8
  mean stimulation index of all test wells of both assays: 59
  mean percentage of wells exceeding medium control + 3 * SD: 100%
[5]; donors #3, 4, 5 and 7
  stimulation index (SI): 13.3-25
[5]; donors #3 and 6
  stimulation index (SI): ≥ 100

## SSTWHWTGHNVKHKSAIVTLTYDSEWQRDQ [E2 316-345]
[1]; [8]
  pIC50: 5.22
[2]; [9]
  pIC50: 4.26
[3]; [10]
  pIC50: 4.52
[4]; [11]
  pIC50: < 4.15
[5]; donor D7
  mean percentage of wells exceeding medium control + 3 * SD: 94%

## E7 22-56: long peptide, amino acids 22-56 of HPV16 E7 protein (LYCYEQLNDSSEEEDEIDGPAGQAEPDRAHYNIVT; UniProt P03129 22-56, looked up, fragment)
[6]
  recognition by HLA-DQ2 restricted Th-clone, IFNγ secretion: secreted IFNγ

## E2 46-75: 30-mer, amino acids 46-75 of HPV16 E2 protein (AREMGFKHINHQVVPTLAVSKNKALQAIEL; UniProt P03120 46-75, looked up, fragment)
[5]; donor D3
  mean percentage of wells exceeding medium control + 3 * SD: 88%
[5]; donor D5
  mean percentage of wells exceeding medium control + 3 * SD: 81%
[5]; donor D8
  mean percentage of wells exceeding medium control + 3 * SD: 94%

## E7 30-50: peptide, amino acids 30-50 of HPV16 E7 (DSSEEEDEIDGPAGQAEPDRA; UniProt P03129 30-50, looked up, fragment)
[6]
  recognition by HLA-DQ2 restricted Th-clone, IFNγ secretion: recognized

## E7 35-50: core sequence, amino acids 35-50 of HPV16 E7 (EDEIDGPAGQAEPDRA)
[6]
  recognition by HLA-DQ2 restricted Th-clone, IFNγ secretion: recognized the core sequence

## E7 50-62: core sequence, amino acids 50-62 of HPV16 E7 (AHYNIVTFCCKCD)
[6]
  response of HLA-DR15 restricted Th-clone to pulsed APC: core sequence recognized

## E7 protein: recombinant HPV16-E7 protein produced in E. coli [reference compound]
[6]
  recognition by HLA-DQ2 restricted Th-clone, IFNγ secretion: secreted IFNγ
  response of HLA-DR15 restricted Th-clone to pulsed APC: specifically respond

## E2 151-180: 30-mer, amino acids 151-180 of HPV16 E2 protein (QVDYYGLYYVHEGIRTYFVQFKDDAEKYSK; UniProt P03120 151-180, looked up, fragment)
[5]; donor D3
  mean percentage of wells exceeding medium control + 3 * SD: 81%
[5]; donor D8
  mean percentage of wells exceeding medium control + 3 * SD: 81%
